ChEMBL document CHEMBL5352416, “Benzo[b]thiophene-2-carboxamides as novel opioid receptor agonists with potent analgesic effect and reduced constipation” (Eur J Med Chem, 2022)
Activity calls are given as the source filed them. No cut-off for these calls is given here.

Experiments:
[1] = biological target: T1, Mu-type opioid receptor (Homo sapiens, UniProt P35372); experiment: Agonist activity at human mu opioid receptor expressed in CHO-K1 cells coexpressing Galpha15 assessed as increase in fluorescence of [ca2+]i measured for 1.52 sec by FLIPR calcium assay; format: functional, cell-based
T1 sequence (P35372 whole entry): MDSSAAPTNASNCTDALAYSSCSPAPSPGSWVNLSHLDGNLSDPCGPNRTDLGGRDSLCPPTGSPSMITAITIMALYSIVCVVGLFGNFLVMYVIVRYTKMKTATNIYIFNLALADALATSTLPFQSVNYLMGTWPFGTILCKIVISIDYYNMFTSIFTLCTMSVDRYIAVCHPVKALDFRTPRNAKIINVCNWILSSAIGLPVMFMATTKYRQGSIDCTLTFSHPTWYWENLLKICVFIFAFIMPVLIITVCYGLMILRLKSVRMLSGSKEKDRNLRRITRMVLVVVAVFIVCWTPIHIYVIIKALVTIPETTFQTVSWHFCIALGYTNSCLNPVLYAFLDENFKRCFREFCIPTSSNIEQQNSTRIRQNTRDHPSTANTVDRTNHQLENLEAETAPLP

[2] = biological target: T1, Mu-type opioid receptor; experiment: Agonist activity at human mu opioid receptor expressed in CHO-K1 cells coexpressing Galpha15 assessed as increase in fluorescence of [ca2+]i by measuring maximum efficacy measured for 1.52 sec by FLIPR calcium assay relative to control; format: functional, cell-based
[3] = test system: Mus musculus; experiment: Antinociceptive activity in C57BL/6 mouse assessed as drug tolerance at 252.8 microg/kg, sc administered twice per day for 6 days and measured immediately by tail flick test; format: functional, organism-based; details: dose 252.8 µg/kg, time 6.0 day
[4] = biological target: T1, Mu-type opioid receptor; experiment: Agonist activity at human mu opioid receptor expressed in CHO-K1 cells assessed as decrease in intracellular cAMP level measured after 1 hr by LANCE ultra cAMP assay; format: functional, cell-based
[5] = test system: Mus musculus; experiment: Antinociceptive activity in thermal stimulated wild type C57BL/6 mouse assessed as tail flick latency at 126.4 to 252.8 microg/kg measured at 30 to 60 mins by tail flick test; format: functional, organism-based; details: dose 126.4-252.8 µg/kg, time 30-60 min
[6] = biological target: T2, Delta-type opioid receptor (Homo sapiens, UniProt P41143); experiment: Agonist activity at human DOR receptor expressed in CHO-K1 cells assessed as […] beta-arrestin 2 recruitment measured after 1.5 hrs by PathHunter assay; format: functional, cell-based
T2 sequence (P41143 whole entry): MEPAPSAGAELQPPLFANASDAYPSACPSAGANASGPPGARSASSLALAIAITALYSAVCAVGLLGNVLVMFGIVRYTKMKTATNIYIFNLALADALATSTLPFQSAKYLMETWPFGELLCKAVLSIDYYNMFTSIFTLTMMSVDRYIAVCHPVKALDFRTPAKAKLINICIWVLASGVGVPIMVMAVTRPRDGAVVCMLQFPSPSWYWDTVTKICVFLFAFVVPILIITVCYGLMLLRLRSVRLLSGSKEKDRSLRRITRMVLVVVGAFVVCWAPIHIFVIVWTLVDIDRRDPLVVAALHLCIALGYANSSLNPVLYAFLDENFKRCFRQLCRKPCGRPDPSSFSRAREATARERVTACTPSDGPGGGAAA

[7] = biological target: T1, Mu-type opioid receptor; experiment: Agonist activity at human mu opioid receptor expressed in CHO-K1 cells assessed as decrease in intracellular cAMP level at 0.5 uM in presence of naltrexone; format: functional, cell-based; details: filed as agonist
[8] = test system: Mus musculus; experiment: Antinociceptive activity in C57BL/6 mouse at 252.8 microg/kg, sc measured after 5 days in presence of BAN ORL 24 by tail flick test; format: functional, organism-based; details: dose 252.8 µg/kg, time 5.0 day
[9] = test system: Mus musculus; experiment: Antinociceptive activity in thermal stimulated C57BL/6 mouse assessed as drug tolerance at 126.4 to 252.8 microg/kg, sc administered twice per day for 5 days and measured immediately by tail flick test; format: functional, organism-based; details: dose 126.4-252.8 µg/kg, time 5.0 day
[10] = test system: Mus musculus; experiment: Induction of motivational effect in C57BL/6 mouse assessed as increase in reward behaviour at 126.4 to 252.8 microg/kg, sc administered for 4 days and measured on day 6 by CPP analysis; format: functional, organism-based; details: dose 126.4-252.8 µg/kg, time 6.0 day
[11] = test system: Mus musculus; experiment: Antinociceptive activity in CFA-induced mechanical allodynia C57BL/6 mouse model at 126.4 to 252.8 microg/kg, sc pretreated with CFA for 2 days followed by compound addition and measured after 1 day by von frey test; format: functional, organism-based; details: dose 126.4-252.8 µg/kg
[12] = test system: Mus musculus; experiment: Antinociceptive activity in thermal stimulated C57BL/6 mouse at 126.4 to 252.8 microg/kg, sc measured at 30 to 180 mins by tail flick test; format: functional, organism-based; details: dose 126.4-252.8 µg/kg, time 30-180 min
[13] = Drug concentration in C57BL/6 mouse plasma at 2 mg/kg, sc measured for 60 min by ICP-MS analysis; format: ADME, organism-based
[14] = Drug concentration in C57BL/6 mouse brain at 2 mg/kg, sc measured for 5 min by ICP-MS analysis; format: ADME, organism-based; details: read-out: Ct
[15] = biological target: T1, Mu-type opioid receptor; experiment: Displacement of [3H]-Diprenorphine from human MOR receptor expressed in CHO-K1 cells assessed as inhibition constant measured for 1 hr by liquid scintillation counter analysis; format: cell-based
[16] = test system: Mus musculus; experiment: Antinociceptive activity in thermal stimulated C57BL/6 mouse assessed as tail flick latency at 126.4 to 252.8 microg/kg, sc measured at 30 to 60 mins by tail flick test; format: functional, organism-based; details: dose 126.4-252.8 µg/kg, time 30-60 min
[17] = Drug concentration in C57BL/6 mouse brain at 2 mg/kg, sc measured for 60 min by ICP-MS analysis; format: ADME, organism-based; details: read-out: Ct
[18] = biological target: T2, Delta-type opioid receptor; experiment: Potency index, ratio of DADLE EC50 to test compound EC50 for agonist activity at human DOR receptor expressed in CHO-K1 cells assessed as […] beta-arrestin 2 recruitment measured after 1.5 hrs by PathHunter assay; format: functional, cell-based
[19] = biological target: T3, Nociceptin receptor (Homo sapiens, UniProt P41146); experiment: Agonist activity at human NOP receptor expressed in CHO-K1 cells assessed as decrease in intracellular cAMP level measured after 1 hr by LANCE ultra cAMP assay; format: functional, cell-based
T3 sequence (P41146 whole entry): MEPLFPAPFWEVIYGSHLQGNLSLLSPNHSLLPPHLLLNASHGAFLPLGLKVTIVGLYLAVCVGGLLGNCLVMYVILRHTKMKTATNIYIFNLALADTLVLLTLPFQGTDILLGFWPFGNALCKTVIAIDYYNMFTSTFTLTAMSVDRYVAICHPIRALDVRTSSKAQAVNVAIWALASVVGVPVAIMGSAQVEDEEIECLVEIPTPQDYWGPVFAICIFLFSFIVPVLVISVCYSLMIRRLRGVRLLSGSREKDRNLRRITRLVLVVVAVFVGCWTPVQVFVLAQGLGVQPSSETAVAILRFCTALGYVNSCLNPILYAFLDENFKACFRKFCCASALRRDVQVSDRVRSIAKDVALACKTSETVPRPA

[20] = biological target: T2, Delta-type opioid receptor; experiment: Displacement of [3H]-Diprenorphine from human DOR receptor expressed in CHO-K1 cells assessed as inhibition constant measured for 1 hr by liquid scintillation counter analysis; format: cell-based
[21] = test system: Mus musculus; experiment: Antinociceptive activity in thermal stimulated sc dosed C57BL/6 mouse measured at 30 to 180 mins by tail flick test; format: functional; details: time 30-180 min
[22] = biological target: T3, Nociceptin receptor; experiment: Agonist activity at human NOP receptor expressed in CHO-K1 cells assessed as […] beta-arrestin 2 recruitment measured after 1.5 hrs by PathHunter assay; format: functional, cell-based
[23] = Drug concentration in C57BL/6 mouse Intestine at 2 mg/kg, sc measured for 5 min by ICP-MS analysis; format: ADME, organism-based; details: read-out: Ct
[24] = test system: Mus musculus; experiment: Antinociceptive activity in C57BL/6 mouse at 252.8 microg/kg, sc measured after 5 days in presence of naltrindole by tail flick test; format: functional, organism-based; details: dose 252.8 µg/kg, time 5.0 day
[25] = biological target: T1, Mu-type opioid receptor; experiment: Agonist activity at human mu opioid receptor expressed in CHO-K1 cells assessed as […] beta-arrestin 2 recruitment measured after 1.5 hrs by PathHunter assay; format: functional, cell-based
[26] = biological target: T2, Delta-type opioid receptor; experiment: Agonist activity at human DOR receptor expressed in CHO-K1 cells assessed as decrease in intracellular cAMP level measured after 1 hr by LANCE ultra cAMP assay; format: functional, cell-based
[27] = test system: Mus musculus; experiment: Antinociceptive activity in morphine tolerant C57BL/6 mouse at 252.8 microg/kg, sc administered twice per day for 6 days and measured after 30 min by tail flick test; format: functional, organism-based; details: dose 252.8 µg/kg
[28] = test system: Mus musculus; experiment: Antinociceptive activity in thermal stimulated MOR-knockout C57BL/6 mouse assessed as delay in flick tail at 252.8 microg/kg, sc measured after 30 mins by tail flick test; format: functional, organism-based; details: dose 252.8 µg/kg
[29] = biological target: T3, Nociceptin receptor; experiment: Displacement of [3H]-Nociceptin from human NOP receptor expressed in CHO-K1 cells assessed as inhibition constant measured for 1 hr by liquid scintillation counter analysis; format: cell-based
[30] = biological target: T3, Nociceptin receptor; experiment: Agonist activity at human NOP receptor expressed in CHO-K1 cells assessed as decrease in intracellular cAMP level at 0.5 uM in presence of BAN ORL 24; format: functional, cell-based
[31] = biological target: T3, Nociceptin receptor; experiment: Potency index, ratio of Nociceptin EC50 to test compound EC50 for agonist activity at human NOP receptor expressed in CHO-K1 cells assessed as […] beta-arrestin 2 recruitment measured after 1.5 hrs by PathHunter assay; format: functional, cell-based
[32] = test system: Mus musculus; experiment: Antinociceptive activity in CFA-induced mechanical allodynia MOR knockout C57BL/6 mouse model at 252.8 microg/kg, sc administered twice daily pretreated with CFA for 2 days followed by compound addition and measured at 3 to 7 days by von frey test; format: functional, organism-based; details: dose 252.8 µg/kg, time 3-7 day
[33] = biological target: T2, Delta-type opioid receptor; experiment: Agonist activity at human DOR receptor expressed in CHO-K1 cells assessed as decrease in intracellular cAMP level at 0.5 uM in presence of naltrindole; format: functional, cell-based
[34] = Drug concentration in C57BL/6 mouse Intestine at 2 mg/kg, sc measured for 60 min by ICP-MS analysis; format: ADME, organism-based; details: read-out: Ct
[35] = Drug concentration in C57BL/6 mouse plasma at 2 mg/kg, sc measured for 5 min by ICP-MS analysis; format: ADME, organism-based

Cc1ccc2c(Cl)c(C(=O)NCCc3ccccc3Cl)sc2c1
EC50 [1]: > 10000 nM
Emax [2]: < 20%

CN1CCc2ccccc2C1CNC(=O)c1ccc(Cl)c(Cl)c1 (stereo unspecified)
EC50 [1]: 0.276 nM
Emax ([2]; filed as agonist): 100%

Cc1cccc(C(CNC(=O)c2cc3ccccc3s2)N(C)C)c1 (stereo unspecified)
EC50 [1]: 4110 nM
Emax ([2]; filed as agonist): 116%

CN(C)C(CNC(=O)c1cc2ccccc2s1)c1ccccc1 (stereo unspecified)
EC50 [1]: 3860 nM
Emax ([2]; filed as agonist): 99.5%

CN(C)C(CNC(=O)c1cccs1)c1ccccc1Cl (stereo unspecified)
EC50 [1]: 400 nM
Emax ([2]; filed as agonist): 54.5%

CN(C)C(CNC(=O)c1cc2ccccc2s1)c1ccccc1F (stereo unspecified)
EC50 [1]: 1240 nM
Emax ([2]; filed as agonist): 105%

Cc1ccc(C(CNC(=O)c2cc3ccccc3s2)N(C)C)cc1 (stereo unspecified)
Activity [3]: Active
EC50 [4]: 0.23 nM
Activity [5]: Active
EC50 [6]: > 10000 nM
Activity [7]: Active
Activity [8]: Active
Activity [9]: Active
Activity [10]: Active
Activity [11]: Active
Activity [12]: Active
concentration at 1 h [13]: 252 ng/mL
concentration at 5 min [14]: 1110 ng/mL
Ki [15]: 0.3 nM
EC50 [1]: 8170 nM
Activity [16]: Active
concentration at 1 h [17]: 2030 ng/mL
Ratio EC50 [18]: 233
EC50 [19]: 22 nM
Emax ([2]; filed as agonist): 114%
Ki [20]: > 1 nM
Activity [21]: Dose-Dependent Effect
ED50 [21]: 127 mg/kg
EC50 [22]: 44800 nM
concentration at 5 min [23]: 515 ng/mL
Activity [24]: Active
EC50 [25]: 30 nM
EC50 [26]: 2.13 nM
Activity [27]: Active
Activity [28]: Active
Ki [29]: 650 nM
Activity [30]: inactive
Ratio EC50 [31]: 2200
Activity [32]: Active
Activity [33]: inactive
concentration at 1 h [34]: 936 ng/mL
concentration at 5 min [35]: 191 ng/mL

Cc1ccc2c(Cl)c(C(=O)NCC(c3ccccc3)N(C)C)sc2c1 (stereo unspecified)
EC50 [1]: 1620 nM
Emax ([2]; filed as agonist): 73.6%

CN(C)C(CNC(=O)c1sc2ccccc2c1Cl)c1ccccc1Cl (stereo unspecified)
EC50 [1]: 360 nM
Emax ([2]; filed as agonist): 93.8%

CN(C)C(CNC(=O)c1cc2ccccc2s1)c1ccc(Br)cc1 (stereo unspecified)
EC50 [1]: 150 nM
Emax ([2]; filed as agonist): 103%

Cc1ccc2cc(C(=O)NCC(c3ccccc3Cl)N(C)C)sc2c1 (stereo unspecified)
EC50 [1]: 1890 nM
Emax ([2]; filed as agonist): 58.4%
